# Measurements published in patent US8785445B2 (Array BioPharma Inc., priority 2008, dated 2014).
# Biological target: T1, human DP2 (Homo sapiens, UniProt Q9Y5Y4)
# T1 construct: expressed in transfected cells; membranes prepared
# T1 sequence (Q9Y5Y4 1-395): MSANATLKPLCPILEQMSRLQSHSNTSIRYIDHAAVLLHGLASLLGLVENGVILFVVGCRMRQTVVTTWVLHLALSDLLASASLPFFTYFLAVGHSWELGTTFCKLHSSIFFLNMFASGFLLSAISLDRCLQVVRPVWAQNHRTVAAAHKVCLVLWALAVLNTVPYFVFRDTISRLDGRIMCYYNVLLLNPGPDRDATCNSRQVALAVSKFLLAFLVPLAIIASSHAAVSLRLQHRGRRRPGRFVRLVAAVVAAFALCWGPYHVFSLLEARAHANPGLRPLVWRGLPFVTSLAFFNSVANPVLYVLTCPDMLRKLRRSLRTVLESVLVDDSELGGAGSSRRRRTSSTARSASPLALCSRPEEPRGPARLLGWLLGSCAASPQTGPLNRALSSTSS
# Experiment: DP-2 binding inhibition assay (3H-PGD2, membranes of DP2-expressing K562 cells)
# Details: 4% HSA, read-out: EC50 (nM) 4% HSA
# Procedure, shortened: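 Membranes from K562 clones stably expressing human DP2 were incubated 60 min at room temperature with 3H-PGD2 and compound, with 0.1% BSA, 1% HSA or 4% HSA, then filtered and counted.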
row,Compound,EC50 [nM]
1,"COc1ccc(CCNC(=O)c2ccc(Oc3cc4c(cc3Cl)C(C(=O)O)CCO4)cc2)cn1 (centres unmarked) [Example 217, 6-chloro-7-(4-(2-(6-methoxypyridin-3-yl)ethylcarbamoyl)phenoxy) chroman-4-carboxylic acid]",1370
2,"COc1ncc(CCNC(=O)c2ccc(Oc3cc4c(cc3Cl)C(C(=O)O)CCO4)cc2)c(OC)n1 (centres unmarked) [Example 220, 6-chloro-7-(4-(2-(2,4-dimethoxypyrimidin-5-yl)ethylcarbamoyl)phenoxy) chroman-4-carboxylic acid]",379
3,"CC(C)(C)c1csc(CCNC(=O)c2ccc(Oc3cc4c(cc3Cl)C(C(=O)O)CCO4)cc2)n1 (centres unmarked) [Example 222, 7-(4-(2-(4-tert-butylthiazol-2-yl)ethylcarbamoyl)phenoxy)-6-chlorochroman-4-carboxylic acid]",1070
4,"O=C(NCCc1cccnc1C1CC1)c1ccc(Oc2cc3c(cc2Cl)C(C(=O)O)CCO3)cc1 (centres unmarked) [Example 223, 6-chloro-7-(4-(2-(2-cyclopropylpyridin-3-yl)ethylcarbamoyl)phenoxy) chroman-4-carboxylic acid]",210
5,"CN(C)c1ncccc1CCNC(=O)c1ccc(Oc2cc3c(cc2Cl)C(C(=O)O)CCO3)cc1 (centres unmarked) [Example 225, 6-chloro-7-(4-(2-(2-(dimethylamino)pyridin-3-yl)ethylcarbamoyl)phenoxy) chroman-4-carboxylic acid]",664
6,"O=C(NCCc1cccnc1N1CCCCC1)c1ccc(Oc2cc3c(cc2Cl)C(C(=O)O)CCO3)cc1 (centres unmarked) [Example 226, 6-chloro-7-(4-(2-(2-(piperidin-1-yl)pyridin-3-yl)ethylcarbamoyl)phenoxy) chroman-4-carboxylic acid]",1920
7,"COc1ncccc1CCNC(=O)c1ccc(Oc2cc3c(cc2Cl)C(C(=O)O)CCO3)cc1 (centres unmarked) [Example 227, 6-chloro-7-(4-(2-(2-methoxypyridin-3-yl)ethylcarbamoyl)phenoxy) chroman-4-carboxylic acid]",857
8,"CC(C)Oc1ncccc1CCNC(=O)c1ccc(Oc2cc3c(cc2Cl)C(C(=O)O)CCO3)cc1 (centres unmarked) [Example 228, 6-chloro-7-(4-(2-(2-isopropoxypyridin-3-yl)ethylcarbamoyl)phenoxy) chroman-4-carboxylic acid]",195

# The next lines start with the values.
row,EC50 [nM],Compound
1,1600,"COc1ccc(-c2cccc(CCNC(=O)c3ccc(Oc4cc5c(cc4Cl)C(C(=O)O)CCO5)cc3)n2)cn1 (centres unmarked) [Example 215, 6-chloro-7-(4-(2-(6′-methoxy-2,3′-bipyridin-6-yl)ethylcarbamoyl)phenoxy)chroman-4-carboxylic acid]"
2,2230,"O=C(NCCn1ccc(Cl)cc1=O)c1ccc(Oc2cc3c(cc2Cl)C(C(=O)O)CCO3)cc1 (centres unmarked) [Example 216, 6-chloro-7-(4-(2-(4-chloro-2-oxopyridin-1(2H)-yl)ethylcarbamoyl)phenoxy)chroman-4-carboxylic acid]"
3,404,"COc1cccc(CCNC(=O)c2ccc(Oc3cc4c(cc3Cl)C(C(=O)O)CCO4)cc2)n1 (centres unmarked) [Example 218, 6-chloro-7-(4-(2-(6-methoxypyridin-2-yl)ethylcarbamoyl)phenoxy) chroman-4-carboxylic acid]"
4,1370,"O=C(NCCn1ccc(-c2ccc(Cl)cc2)n1)c1ccc(Oc2cc3c(cc2Cl)C(C(=O)O)CCO3)cc1 (centres unmarked) [Example 219, 6-chloro-7-(4-(2-(3-(4-chlorophenyl)-1H-pyrazol-1-yl)ethylcarbamoyl)phenoxy) chroman-4-carboxylic acid]"
5,962,"O=C(NCCc1cccc(-c2ccccc2Cl)n1)c1ccc(Oc2cc3c(cc2Cl)C(C(=O)O)CCO3)cc1 (centres unmarked) [Example 221, 6-chloro-7-(4-(2-(6-(2-chlorophenyl)pyridin-2-yl)ethylcarbamoyl)phenoxy) chroman-4-carboxylic acid]"
6,998,"O=C(NCCc1cccnc1-c1ccccc1Cl)c1ccc(Oc2cc3c(cc2Cl)C(C(=O)O)CCO3)cc1 (centres unmarked) [Example 224, 6-chloro-7-(4-(2-(2-(2-chlorophenyl)pyridin-3-yl)ethylcarbamoyl)phenoxy) chroman-4-carboxylic acid]"
